Measured values as given in ChEMBL document CHEMBL1201862, “PubChem BioAssay data set” (2004).
The source made the active and inactive calls.

Legend:
[1] = Counterscreen for AddAB inhibitors: absorbance-based bacterial cell-based high throughput dose response assay for inhibitors of bacterial viability. [Related pubchem assays (depositor defined):AID435030, AID449728, AID449731, AID488942, AID488955, AID488956]; assay type: functional
[2] = molecular target: T1, Exodeoxyribonuclease V (Escherichia coli (strain K12), UniProt P04993+P07648+P08394); assay: RecBCD inhibition via phage-restricted bacterial growth – absorbance, V66 E. coli, mutant T4 phage, counter-screen for AddAB inhibitor project, dose response (AID 492957); assay type: functional, cell-based, Escherichia coli str. K-12 substr. MG1655
T1 sequence (P04993 whole entry): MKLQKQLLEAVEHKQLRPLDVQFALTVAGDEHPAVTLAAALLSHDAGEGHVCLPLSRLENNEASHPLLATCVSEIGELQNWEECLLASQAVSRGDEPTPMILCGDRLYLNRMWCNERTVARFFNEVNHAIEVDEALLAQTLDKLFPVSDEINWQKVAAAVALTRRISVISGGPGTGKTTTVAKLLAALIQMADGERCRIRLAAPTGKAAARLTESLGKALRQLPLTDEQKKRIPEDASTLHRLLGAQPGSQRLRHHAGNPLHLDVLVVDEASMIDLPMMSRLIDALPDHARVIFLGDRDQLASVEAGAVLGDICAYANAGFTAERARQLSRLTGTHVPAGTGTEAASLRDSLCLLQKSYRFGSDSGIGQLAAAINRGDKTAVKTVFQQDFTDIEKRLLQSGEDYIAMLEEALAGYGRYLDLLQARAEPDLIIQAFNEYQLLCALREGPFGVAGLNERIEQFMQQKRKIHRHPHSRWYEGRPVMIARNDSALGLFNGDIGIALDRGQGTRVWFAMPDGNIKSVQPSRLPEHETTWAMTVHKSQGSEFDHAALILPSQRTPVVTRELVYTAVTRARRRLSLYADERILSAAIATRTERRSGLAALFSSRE
T1 sequence (P07648 whole entry): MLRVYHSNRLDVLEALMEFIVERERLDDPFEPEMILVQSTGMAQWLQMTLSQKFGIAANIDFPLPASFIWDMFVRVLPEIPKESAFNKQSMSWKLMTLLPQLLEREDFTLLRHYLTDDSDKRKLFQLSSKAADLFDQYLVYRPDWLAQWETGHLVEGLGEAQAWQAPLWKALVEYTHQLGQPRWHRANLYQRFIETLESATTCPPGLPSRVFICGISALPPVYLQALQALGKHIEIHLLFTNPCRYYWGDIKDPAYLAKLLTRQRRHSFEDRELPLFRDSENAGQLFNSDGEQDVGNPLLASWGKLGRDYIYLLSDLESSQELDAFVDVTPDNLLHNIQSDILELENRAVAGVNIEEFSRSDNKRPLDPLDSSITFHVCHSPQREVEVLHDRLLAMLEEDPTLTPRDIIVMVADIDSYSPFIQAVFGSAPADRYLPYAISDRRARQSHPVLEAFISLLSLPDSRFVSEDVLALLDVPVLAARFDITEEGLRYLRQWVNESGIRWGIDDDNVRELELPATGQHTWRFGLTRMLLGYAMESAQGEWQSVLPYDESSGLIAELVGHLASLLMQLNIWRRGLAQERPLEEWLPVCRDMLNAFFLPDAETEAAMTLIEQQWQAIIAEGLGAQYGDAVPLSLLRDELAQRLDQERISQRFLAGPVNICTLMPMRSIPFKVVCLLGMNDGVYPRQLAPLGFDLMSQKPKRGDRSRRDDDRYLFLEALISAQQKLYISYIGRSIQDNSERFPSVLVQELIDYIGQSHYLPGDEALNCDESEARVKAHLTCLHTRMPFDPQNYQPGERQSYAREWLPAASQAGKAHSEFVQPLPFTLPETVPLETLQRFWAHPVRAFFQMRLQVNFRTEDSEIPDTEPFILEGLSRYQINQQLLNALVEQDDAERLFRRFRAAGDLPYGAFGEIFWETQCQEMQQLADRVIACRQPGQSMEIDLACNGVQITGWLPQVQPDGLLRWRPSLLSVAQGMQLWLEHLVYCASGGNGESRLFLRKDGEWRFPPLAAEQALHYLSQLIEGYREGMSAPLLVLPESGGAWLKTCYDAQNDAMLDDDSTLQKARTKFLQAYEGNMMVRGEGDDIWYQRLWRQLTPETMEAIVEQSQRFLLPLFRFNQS
T1 sequence (P08394 whole entry): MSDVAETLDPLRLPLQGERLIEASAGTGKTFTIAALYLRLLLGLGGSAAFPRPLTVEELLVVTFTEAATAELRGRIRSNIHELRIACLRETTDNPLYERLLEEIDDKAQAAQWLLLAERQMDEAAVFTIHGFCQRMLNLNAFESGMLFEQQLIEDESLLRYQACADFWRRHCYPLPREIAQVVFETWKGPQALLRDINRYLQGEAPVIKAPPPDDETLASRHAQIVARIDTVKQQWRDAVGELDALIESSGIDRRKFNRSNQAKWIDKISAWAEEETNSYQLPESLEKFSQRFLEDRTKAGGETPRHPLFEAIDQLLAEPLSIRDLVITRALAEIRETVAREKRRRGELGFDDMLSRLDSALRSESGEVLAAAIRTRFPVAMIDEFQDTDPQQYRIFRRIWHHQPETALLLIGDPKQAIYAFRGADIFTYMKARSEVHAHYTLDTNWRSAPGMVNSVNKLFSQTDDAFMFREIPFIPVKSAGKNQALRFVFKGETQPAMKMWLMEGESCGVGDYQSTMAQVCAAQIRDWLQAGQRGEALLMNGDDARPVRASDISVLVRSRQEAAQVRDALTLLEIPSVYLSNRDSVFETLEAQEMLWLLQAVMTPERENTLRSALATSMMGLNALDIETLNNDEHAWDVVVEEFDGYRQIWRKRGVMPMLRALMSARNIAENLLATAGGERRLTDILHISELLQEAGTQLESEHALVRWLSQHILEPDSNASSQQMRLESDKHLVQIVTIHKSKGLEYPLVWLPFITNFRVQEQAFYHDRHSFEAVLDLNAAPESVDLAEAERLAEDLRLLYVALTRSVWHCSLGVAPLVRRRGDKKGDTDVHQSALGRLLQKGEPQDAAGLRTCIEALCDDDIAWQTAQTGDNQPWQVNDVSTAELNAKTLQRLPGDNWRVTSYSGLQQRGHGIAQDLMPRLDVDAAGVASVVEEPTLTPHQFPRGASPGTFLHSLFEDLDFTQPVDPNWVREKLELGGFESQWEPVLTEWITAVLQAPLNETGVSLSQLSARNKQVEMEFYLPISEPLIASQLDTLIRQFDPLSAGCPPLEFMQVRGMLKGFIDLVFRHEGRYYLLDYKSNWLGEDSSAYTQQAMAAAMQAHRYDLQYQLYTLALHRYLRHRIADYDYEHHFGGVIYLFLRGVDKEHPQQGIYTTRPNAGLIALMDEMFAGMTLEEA

[3] = test system: Jurkat; assay: SAR Analysis of small molecule inhibitors of T-cell specific antigen receptor-induced NF-kB activation in a Jurkat cell line using a luminescence assay - Set 2. [Related pubchem assays (depositor defined):AID435003, AID435012, AID465]; assay type: functional, cell-based; settings: Homo sapiens
[4] = reduction of Shn3 3'UTR-driven luciferase in osteoblasts – cell-based, Clone20 osteoblasts, firefly luciferase, cherry-picked, dose response (AID 624132); assay type: functional;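 also: firefly luciferase luminescence from reporter carrying the Shn3 3'UTR in osteoblasts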
[5] = loss of viability in HepG2 cells – cell-based, CellTiter-Glo, cherry-picked, cytotoxicity control for Shn3 inhibitor project, dose response (AID 624134); assay type: functional
[6] = test system: HEK293; assay: SAR Analysis of small molecule inhibitors of T-cell specific antigen receptor-induced NF-kB activation in a HEK-293T cell line using a luminescence assay - Set 2. [Related pubchem assays (depositor defined):AID435003, AID435012, AID489026]; assay type: functional, cell-based; settings: Homo sapiens
[7] = test system: HEK293; assay: HEK293T cell viability loss, resazurin readout – resazurin fluorescence, cytotoxicity control for NF-kB activator project, SAR follow-up (AID 493251); assay type: functional, cell-based; settings: Homo sapiens
[8] = non-specific 3'UTR reporter inhibition in Clone20-Shn3RL – cell-based, Renilla luciferase, cherry-picked, counter-screen for Shn3 inhibitor project, dose response (AID 624133); assay type: functional
[9] = molecular target: T2, Sentrin-specific protease 7 (Homo sapiens, UniProt Q9BQF6); assay type: functional;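 also: Luminescence-based dose-response confirmation of ultra-high-throughput screening hits, measuring inhibition of SENP7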
T2 sequence (Q9BQF6 whole entry): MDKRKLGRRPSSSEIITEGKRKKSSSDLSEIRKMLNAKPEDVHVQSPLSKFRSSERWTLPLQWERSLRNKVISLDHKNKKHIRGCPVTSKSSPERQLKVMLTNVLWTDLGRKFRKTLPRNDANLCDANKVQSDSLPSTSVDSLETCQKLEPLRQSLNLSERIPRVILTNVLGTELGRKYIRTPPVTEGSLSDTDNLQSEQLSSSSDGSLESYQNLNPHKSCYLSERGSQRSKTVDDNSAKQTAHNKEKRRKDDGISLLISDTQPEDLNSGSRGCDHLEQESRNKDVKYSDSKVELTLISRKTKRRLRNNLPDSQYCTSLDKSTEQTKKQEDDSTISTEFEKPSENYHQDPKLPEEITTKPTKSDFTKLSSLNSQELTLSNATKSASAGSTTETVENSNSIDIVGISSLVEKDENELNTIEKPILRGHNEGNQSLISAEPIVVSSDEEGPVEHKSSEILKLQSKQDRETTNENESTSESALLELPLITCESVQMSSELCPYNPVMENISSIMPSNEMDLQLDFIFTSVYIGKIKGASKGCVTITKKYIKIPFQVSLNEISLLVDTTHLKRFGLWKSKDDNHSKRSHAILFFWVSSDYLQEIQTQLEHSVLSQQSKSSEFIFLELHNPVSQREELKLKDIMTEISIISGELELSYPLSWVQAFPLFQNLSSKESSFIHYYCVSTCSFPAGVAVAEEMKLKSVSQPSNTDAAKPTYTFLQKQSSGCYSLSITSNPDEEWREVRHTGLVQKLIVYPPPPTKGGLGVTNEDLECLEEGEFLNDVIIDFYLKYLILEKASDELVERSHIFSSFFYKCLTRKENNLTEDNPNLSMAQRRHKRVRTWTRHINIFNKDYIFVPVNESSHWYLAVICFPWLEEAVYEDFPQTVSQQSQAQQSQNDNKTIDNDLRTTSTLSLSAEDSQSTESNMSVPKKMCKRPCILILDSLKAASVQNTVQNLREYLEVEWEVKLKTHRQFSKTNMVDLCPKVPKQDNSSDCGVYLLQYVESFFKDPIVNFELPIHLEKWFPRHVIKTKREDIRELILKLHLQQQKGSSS

[10] = molecular target: T3, Sentrin-specific protease 8 (Homo sapiens, UniProt Q96LD8); assay type: functional;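 also: luminescence read-out of SENP8 inhibition, dose-response confirmation following an ultra-high-throughput screen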
T3 sequence (Q96LD8 whole entry): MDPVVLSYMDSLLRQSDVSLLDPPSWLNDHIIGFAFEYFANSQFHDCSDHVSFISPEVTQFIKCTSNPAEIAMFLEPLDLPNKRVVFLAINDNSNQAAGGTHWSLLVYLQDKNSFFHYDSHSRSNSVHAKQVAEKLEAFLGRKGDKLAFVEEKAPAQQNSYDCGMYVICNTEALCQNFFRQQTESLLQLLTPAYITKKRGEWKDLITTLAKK

[11] = molecular target: T4, Caspase-3 (Homo sapiens, UniProt P42574); assay type: functional;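 also: Dose-response selectivity test against caspase-3 for candidate inhibitors of sentrin-specific proteases (SENPs)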
T4 sequence (P42574 whole entry): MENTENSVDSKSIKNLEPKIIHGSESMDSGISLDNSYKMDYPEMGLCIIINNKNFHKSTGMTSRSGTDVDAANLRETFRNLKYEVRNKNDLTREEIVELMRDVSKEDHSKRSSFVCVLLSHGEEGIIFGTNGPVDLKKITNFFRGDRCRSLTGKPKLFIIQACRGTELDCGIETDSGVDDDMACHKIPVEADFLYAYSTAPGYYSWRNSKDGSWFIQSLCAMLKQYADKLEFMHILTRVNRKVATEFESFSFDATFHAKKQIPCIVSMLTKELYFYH

[12] = molecular target: T5, Sentrin-specific protease 6 (Homo sapiens, UniProt Q9GZR1); assay type: functional;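 also: Luminescence-based dose-response confirmatory assay of SENP6 inhibition, following up an ultra-high-throughput screen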
T5 sequence (Q9GZR1 whole entry): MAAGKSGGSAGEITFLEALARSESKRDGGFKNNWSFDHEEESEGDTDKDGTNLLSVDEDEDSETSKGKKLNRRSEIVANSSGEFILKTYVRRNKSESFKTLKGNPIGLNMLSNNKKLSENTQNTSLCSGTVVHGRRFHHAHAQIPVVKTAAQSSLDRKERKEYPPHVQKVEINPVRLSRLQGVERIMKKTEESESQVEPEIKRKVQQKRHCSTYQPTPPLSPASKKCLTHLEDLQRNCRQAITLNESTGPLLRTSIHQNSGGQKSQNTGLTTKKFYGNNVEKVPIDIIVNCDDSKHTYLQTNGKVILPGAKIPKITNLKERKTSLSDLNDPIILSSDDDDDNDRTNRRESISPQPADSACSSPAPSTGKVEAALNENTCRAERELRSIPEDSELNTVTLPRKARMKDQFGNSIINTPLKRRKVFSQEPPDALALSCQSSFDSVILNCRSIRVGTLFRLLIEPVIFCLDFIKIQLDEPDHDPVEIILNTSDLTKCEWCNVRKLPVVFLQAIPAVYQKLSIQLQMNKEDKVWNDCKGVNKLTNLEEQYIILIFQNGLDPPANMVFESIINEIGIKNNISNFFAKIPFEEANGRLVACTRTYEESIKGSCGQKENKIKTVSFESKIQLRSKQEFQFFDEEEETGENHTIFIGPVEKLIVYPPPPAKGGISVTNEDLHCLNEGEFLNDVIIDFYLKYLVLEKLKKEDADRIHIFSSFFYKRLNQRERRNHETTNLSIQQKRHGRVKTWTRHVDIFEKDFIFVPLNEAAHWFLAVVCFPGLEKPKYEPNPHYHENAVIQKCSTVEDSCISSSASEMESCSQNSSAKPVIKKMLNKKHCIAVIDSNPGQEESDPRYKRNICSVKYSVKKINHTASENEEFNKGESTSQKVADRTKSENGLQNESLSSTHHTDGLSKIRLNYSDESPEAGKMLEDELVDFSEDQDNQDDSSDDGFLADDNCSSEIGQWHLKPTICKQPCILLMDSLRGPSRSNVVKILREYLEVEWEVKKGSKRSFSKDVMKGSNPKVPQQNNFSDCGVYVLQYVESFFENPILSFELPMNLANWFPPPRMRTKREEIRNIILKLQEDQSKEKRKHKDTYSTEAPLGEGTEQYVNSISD

IC50 [9]	IC50 [11]	IC50 [12]	Structure (SMILES)	IC50 [1]	IC50 [2]	IC50 [3]	AC50 [4]	AC50 [5]	IC50 [6]	IC50 [7]	AC50 [8]	IC50 [10]
			O=C(Nc1ccc2oc(-c3ccncc3)nc2c1)c1ccc([N+](=O)[O-])o1	> 119 µM (inactive)	> 119 µM (inactive)	55.5 µM (inactive)	18.6 µM (active)	> 70 µM (inactive)	41.5 µM (inactive)	> 80 µM (inactive)	20.7 µM (active)	
14.3 µM (active)	34.4 µM (active)	27 µM (active)	Cc1ccc(CN2CCN(CC(=O)N/N=C/c3ccccc3F)CC2)cc1									> 100 µM (inactive)
